The values below come from patent US20150064794A1, “BIORELEVANT COMPOSITIONS” (PHARES PHARMACEUTICAL RESEARCH N.V., priority 2012, published 2015).

The term solubility denotes how much of the substance goes into solution per volume. A low value points to a poorly soluble substance.

One series is described as follows: physchem. Conditions: fassif.
The conditions of series [1]: medium FaSSIF-Original; Söderlind; cited from earlier work.
Series [2] is described as follows: Solubility in canine FaSSIF (FaSSIF-canine).

≈ marks a conversion by molar mass, not a printed value.

For `OCCN(CCO)c1nc(N2CCCCC2)c2nc(N(CCO)CCO)nc(N3CCCCC3)c2n1` [dipyridamole], the concentration in solution in the series “physchem” (solubility) came to 75 µg/mL (≈ 149 µM). Besides, in series [1], the “solubility in prior art FaSSIF-Original” value is 19 µg/mL (≈ 37.7 µM).

For `CC(=O)N1CCN(c2ccc(OCC3COC(Cn4ccnc4)(c4ccc(Cl)cc4Cl)O3)cc2)CC1` (stereo not shown) [ketoconazole], the concentration in solution in series [2] (solubility) was 84.2 µg/mL (≈ 158 µM). Besides, the “solubility in prior art FaSSIF-Original” value in series [1] was 26 µg/mL (≈ 48.9 µM).
